Data: paper PMC8808171, “Nonselective TRPC channel inhibition and suppression of aminoglycoside-induced premature termination codon readthrough by the small molecule AC1903” (The Journal of Biological Chemistry, 2022)
“Also recorded” adds a separate entry of the source.

What was measured:
[1] = test system: JEB01 keratinocytes (COL17A1 R688X); assay: G418-induced PTC readthrough (Collagen XVII, Western blot) in JEB01 keratinocytes; format: cell-based, human; details: pretreatment 150 μM AC1903, increasing concentrations of G418 (Fig. 2E)
Protocol: Figure 2 Effect of AC1903 on PTC readthrough and G418 trafficking.A and B, DMS-114 (A) or TC-71 (B) cells were pretreated with indicated concentrations of AC1903 for 3 h followed by exposure to 400 μg/ml G418. After 3 h medium was replenished and at 24 h cell lysates were prepared and p53 levels were measured. C and E, DMS-114 (C) or JEB01 (E) cells were either left untreated or pretreated with 150 μM AC1903 for 3 h followed by exposure to indicated concentrations of G418 for another 3 h. At 24 h cell lysates were prepared and p53 (C) or Collagen XVII (E) levels were measured. In panels A–C, protein levels were measured by automated capillary electrophoresis Western analysis (using vinculin as loading control). In panel E, protein levels were measured by Western blot (using beta-actin as loading control). […] D, total intracellular levels of G418 were measured in the same lysates as in (C) (n = 5; data normalized to the highest response in each experiment; bars represent mean ± SD). F, total intracellular levels of G418 were measured in the same lysates as in (E) (n = 2; data normalized to the highest response in each experiment; bars represent mean ± SD). ∗ indicates statistically significant difference between samples according to one-way ANOVA (p < 0.05). […]

A498 cells = assay: EA-mediated A498 cytotoxicity (WST-1 cell viability assay); format: cell-based; details: AC1903 100 μM; 100 nM EA; 8 h
Protocol: Cell viability assays were carried out using WST-1 Cell Proliferation Reagent (Merck). A498 cells were plated onto clear 96-well plates at 4000 cells per well and left to adhere for 24 h. Media was then removed, and replaced with fresh media containing 100 nM EA, in presence of either DMSO or 0.1 to 100 μM AC1903. Control wells were treated with vehicle (DMSO) only. To exclude any potential cytotoxic effects of AC1903 itself, cells were incubated with 0.1 to 100 μM AC1903 in absence of EA. Cells were treated in triplicate. Cells were incubated with compounds for 8 h. After 8 h, treatment media was removed and media containing WST-1 reagent (10 μl reagent +100 μl media per well) was added to each well and incubated for 1.5 h at 37 °C. Blank wells contained media and WST-1 reagent (no cells). […] Absorbance was then read at 440 nm and 650 nm (reference wavelength). To analyze data, the value of the 650 nm was subtracted from that of the 440 nm reading. Values across triplicate wells were averaged, and the value from the blank wells subtracted to account for background absorbance. […]
Inhibition of G418-induced premature stop codon readthrough
A498 cytotoxicity . […] Cell viability was calculated as % of control, and the effect of AC1903 was compared to control (0 µM ) (scatter plots showing data from three independent experiments; bars represent mean ± SD; n = 3). […]

Compound: c1ccc(Cn2c(NCc3ccco3)nc3ccccc32)cc1 [AC1903]
- decline of full-length Collagen XVII [1]: 45–80%
- effect on EA-mediated A498 cytotoxicity (A498 cells): inhibits EA-mediated; also recorded: inhibited EA-mediated A498 cytotoxicity
